Measurements as given in PubChem BioAssay (NCI).
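Five concentrations, 48 hours, 96-well plates. At the GI50, growth is halved. TGI marks complete inhibition of growth.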

Columns and labels:
Experiment in all cases: inhibition of tumour cell growth, NCI panel, 48 h
HCT-116 colon = tested on: HCT-116 colon
K-562 leukemia = tested on: K-562 leukemia
MDA-MB-435 = tested on: MDA-MB-435
HCT-15 colon = tested on: HCT-15 colon
SF-295 CNS = tested on: SF-295 CNS
MALME-3M melanoma = tested on: MALME-3M melanoma
SNB-19 CNS = tested on: SNB-19 CNS
A498 renal = tested on: A498 renal
HOP-92 NSCLC = tested on: HOP-92 NSCLC
RXF 393 renal = tested on: RXF 393 renal
RPMI-8226 leukemia = tested on: RPMI-8226 leukemia
SW-620 colon = tested on: SW-620 colon
SN12C renal = tested on: SN12C renal
EKVX NSCLC = tested on: EKVX NSCLC
KM12 colon = tested on: KM12 colon
CAKI-1 renal = tested on: CAKI-1 renal
UACC-257 melanoma = tested on: UACC-257 melanoma
NCI/ADR-RES ovarian = tested on: NCI/ADR-RES ovarian
M14 melanoma = tested on: M14 melanoma
SK-MEL-28 melanoma = tested on: SK-MEL-28 melanoma
HOP-62 NSCLC = tested on: HOP-62 NSCLC
U251 CNS = tested on: U251 CNS
OVCAR-8 ovarian = tested on: OVCAR-8 ovarian
T-47D breast = tested on: T-47D breast
COLO 205 colon = tested on: COLO 205 colon
OVCAR-3 ovarian = tested on: OVCAR-3 ovarian
SF-539 CNS = tested on: SF-539 CNS
BT-549 breast = tested on: BT-549 breast
UACC-62 melanoma = tested on: UACC-62 melanoma
TK-10 renal = tested on: TK-10 renal
MCF7 breast = tested on: MCF7 breast
CCRF-CEM leukemia = tested on: CCRF-CEM leukemia
OVCAR-5 ovarian = tested on: OVCAR-5 ovarian
IGROV1 ovarian = tested on: IGROV1 ovarian
SK-MEL-2 melanoma = tested on: SK-MEL-2 melanoma
HT29 colon = tested on: HT29 colon
SK-MEL-5 melanoma = tested on: SK-MEL-5 melanoma
NCI-H460 lung = tested on: NCI-H460 lung
DU-145 prostate = tested on: DU-145 prostate
NCI-H23 lung = tested on: NCI-H23 lung
PC-3 prostate = tested on: PC-3 prostate
HCC-2998 colon = tested on: HCC-2998 colon
ACHN renal = tested on: ACHN renal
OVCAR-4 ovarian = tested on: OVCAR-4 ovarian
SK-OV-3 ovarian = tested on: SK-OV-3 ovarian
NCI-H226 lung = tested on: NCI-H226 lung
SF-268 CNS = tested on: SF-268 CNS
MDA-MB-231 breast = tested on: MDA-MB-231 breast
LOX IMVI melanoma = tested on: LOX IMVI melanoma
MOLT-4 leukemia = tested on: MOLT-4 leukemia
SR leukemia = tested on: SR leukemia
A549 NSCLC = tested on: A549 NSCLC
786-0 renal = tested on: 786-0 renal
HL-60(TB) leukemia = tested on: HL-60(TB) leukemia
SNB-75 CNS = tested on: SNB-75 CNS
HS 578T breast = tested on: HS 578T breast
UO-31 renal = tested on: UO-31 renal

## CCN(CC)CCn1c2ccc(O)cc2c2sc3cc(OC)ccc3c(=O)c21
HCT-116 colon
  GI50: 1.07 µM
  TGI: 2.38 µM
K-562 leukemia
  GI50: 1.24 µM
  TGI: 2.81 µM
MDA-MB-435
  GI50: 1.64 µM
  TGI: 3.1 µM
HCT-15 colon
  GI50: 1.2 µM
  TGI: 3.28 µM
SF-295 CNS
  GI50: 5.35 µM
  TGI: 18.8 µM
MALME-3M melanoma
  GI50: 1.87 µM
  TGI: 4.01 µM
SNB-19 CNS
  GI50: 1.51 µM
  TGI: 3.41 µM
A498 renal
  GI50: 3.08 µM
  TGI: 16.5 µM
HOP-92 NSCLC
  GI50: 2.58 µM
  TGI: 17 µM
RXF 393 renal
  GI50: 1.3 µM
  TGI: 2.68 µM
RPMI-8226 leukemia
  GI50: 1.95 µM
  TGI: 4.88 µM
SW-620 colon
  GI50: 0.675 µM
  TGI: 2.11 µM
SN12C renal
  GI50: 5.83 µM
  TGI: 21.2 µM
EKVX NSCLC
  GI50: 1.67 µM
  TGI: 3.5 µM
KM12 colon
  GI50: 1.84 µM
  TGI: 3.72 µM
CAKI-1 renal
  GI50: 3.73 µM
  TGI: 17 µM
UACC-257 melanoma
  GI50: 2.1 µM
  TGI: 4.68 µM
NCI/ADR-RES ovarian
  GI50: 1.23 µM
  TGI: 4.01 µM
M14 melanoma
  GI50: 1.64 µM
  TGI: 3.31 µM
SK-MEL-28 melanoma
  GI50: 1.8 µM
  TGI: 3.29 µM
HOP-62 NSCLC
  GI50: 6.03 µM
  TGI: 23.7 µM
U251 CNS
  GI50: 1.58 µM
  TGI: 3.34 µM
OVCAR-8 ovarian
  GI50: 2.1 µM
  TGI: 7.26 µM
T-47D breast
  GI50: 14.2 µM
  TGI: 37.9 µM
COLO 205 colon
  GI50: 3.08 µM
  TGI: 17.9 µM
OVCAR-3 ovarian
  GI50: 2.19 µM
  TGI: 4.88 µM
SF-539 CNS
  GI50: 1.76 µM
  TGI: 3.2 µM
BT-549 breast
  GI50: 6.09 µM
  TGI: 19.9 µM
UACC-62 melanoma
  GI50: 1.89 µM
  TGI: 4.26 µM
TK-10 renal
  GI50: 9.04 µM
  TGI: 24.7 µM
MCF7 breast
  GI50: 1.18 µM
  TGI: 2.79 µM
CCRF-CEM leukemia
  GI50: 1.09 µM
  TGI: 4.5 µM
OVCAR-5 ovarian
  GI50: 2.22 µM
  TGI: 4.68 µM
IGROV1 ovarian
  GI50: 1.59 µM
  TGI: 4.52 µM
SK-MEL-2 melanoma
  GI50: 9.15 µM
  TGI: 25.1 µM
HT29 colon
  GI50: 1.75 µM
  TGI: 4.29 µM
SK-MEL-5 melanoma
  GI50: 1.74 µM
  TGI: 3.14 µM
NCI-H460 lung
  GI50: 1.22 µM
  TGI: 2.66 µM
DU-145 prostate
  GI50: 1.71 µM
  TGI: 3.51 µM
NCI-H23 lung
  GI50: 1.56 µM
  TGI: 3.18 µM
PC-3 prostate
  GI50: 1.82 µM
  TGI: 5.09 µM
HCC-2998 colon
  GI50: 1.47 µM
  TGI: 2.91 µM
ACHN renal
  GI50: 1.13 µM
  TGI: 2.44 µM
OVCAR-4 ovarian
  GI50: 1.81 µM
  TGI: 4.04 µM
SK-OV-3 ovarian
  GI50: 13.4 µM
  TGI: 27.2 µM
NCI-H226 lung
  GI50: 10.4 µM
  TGI: 24.2 µM
SF-268 CNS
  GI50: 7.34 µM
  TGI: 24.5 µM
MDA-MB-231 breast
  GI50: 1.61 µM
  TGI: 3.71 µM
LOX IMVI melanoma
  GI50: 1.21 µM
  TGI: 2.59 µM
MOLT-4 leukemia
  GI50: 0.389 µM
  TGI: 1.71 µM
SR leukemia
  GI50: 1.11 µM
  TGI: 3.15 µM
A549 NSCLC
  GI50: 1.63 µM
  TGI: 4.3 µM
786-0 renal
  GI50: 1.39 µM
  TGI: 2.79 µM
HL-60(TB) leukemia
  GI50: 1.72 µM
  TGI: 3.55 µM
SNB-75 CNS
  GI50: 2.39 µM
  TGI: 17.4 µM
HS 578T breast
  GI50: 1.95 µM
  TGI: 4.59 µM
UO-31 renal
  GI50: 1.9 µM
  TGI: 11.5 µM
